In patent publication US8710243B2, “Estrogen receptor ligands” (Karo Bio AB, priority 2009, dated 2014):

Biological target: T1, human estrogen receptor beta (Homo sapiens, UniProt Q92731)
T1 construct: expressed in transfected cells; host or cells: HEK293 (CRL-1573)
Experiment: Transactivation Assay 2 in human embryonic kidney 293 cells stably transfected with pERE2-ALP and human estrogen receptor beta
Assay type: cell-based
Conditions: read-out: potency at the estrogen receptor β-subtype, EC50
Method: Transactivation Assay 2: Transactivation Assay in Human Embryonic Kidney 293 Cells Stably Transfected with pERE2-ALP and Human Estrogen Receptor Beta
Generation of stable HEK293 cell lines (CRL-1573; American Type Culture Collection) expressing the reporter vector pERE2-ALP and human estrogen receptor beta (hERβ 530) have been described (Mol Pharmacol 1998, 54, 105-112; Endocrinology 2002, 143, 1558-1561).
The cells were seeded in 384-well plates at 12 500 cells per well in Ham's F12 Coon's modification (without phenol red) with 10% dextran-coated charcoal treated (DCC) fetal bovine serum (FBS), 2 mM L-glutamine and 50 μg/ml gentamicin. After 24 h incubation (37° C., 5% CO2) the seeding medium was discarded and replaced with 20 μl Ham's F12 Coon's modification (without phenol red) with 1.5% DCC-FCS, 2 mM L-glutamine and supplemented with 100 U/ml penicillin and 100 μg/ml streptomycin. The selected compounds were added to the wells in 12 concentrations ranging from […] to 33 μM. The compounds were dissolved in 100% dimethylsulfoxide (DMSO) and the final concentration of DMSO in the assay was 0.1%. After 72 h incubation (37° C., 5% CO2) the medium was assayed for ALP activity by a chemiluminescence assay; a 10 μl aliquot of the conditioned medium was mixed with 100 μl assay buffer (0.1 M diethanolamine, 1 mM MgC12) and 0.5 mM disodium 3-(4-methoxyspiro 1,2-dioxetane-3,2′-(5′-chloro)-tricyclo[3.3.1.13,7]decan-4-yl)phenyl phosphate (CSPD) (Tropix, Applied Biosystems) and incubated for 20 min at 37° C. and 15 min at room temperature before measurement of the chemiluminescent signal (one second per well) in a Wallac Microbeta Trilux 1450-028 (PerkinElmer). The ALP activity expressed in LCPS is directly proportional to the level of ALP expressed by the cells. The half maximal effective concentrations of the test compounds (EC50) were calculated from the curves fitted to the concentration-response data with a four parameter logistic model in XLfit software version 2.0 (IDBS) or later.

T1 sequence (Q92731 whole entry): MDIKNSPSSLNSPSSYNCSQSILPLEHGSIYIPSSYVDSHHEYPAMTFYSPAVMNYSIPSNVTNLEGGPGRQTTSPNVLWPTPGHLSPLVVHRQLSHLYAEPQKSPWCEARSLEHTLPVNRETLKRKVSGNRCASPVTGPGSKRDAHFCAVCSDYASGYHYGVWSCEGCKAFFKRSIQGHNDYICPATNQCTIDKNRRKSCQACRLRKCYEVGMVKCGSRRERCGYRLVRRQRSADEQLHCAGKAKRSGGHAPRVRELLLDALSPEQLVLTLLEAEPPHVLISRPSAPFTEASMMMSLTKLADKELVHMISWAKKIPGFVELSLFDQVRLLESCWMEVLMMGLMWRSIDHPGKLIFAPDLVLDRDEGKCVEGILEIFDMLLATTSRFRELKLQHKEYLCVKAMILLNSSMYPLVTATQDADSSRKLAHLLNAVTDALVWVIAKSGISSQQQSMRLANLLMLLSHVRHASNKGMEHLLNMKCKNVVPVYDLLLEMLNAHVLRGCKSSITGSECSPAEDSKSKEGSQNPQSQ

Row | Compound | EC50
1 | Cc1csc(C)c1-c1c(-c2ccc(O)cc2)c2ccccc2n1C(N)=O [Example 11, 2-(2,4-dimethylthiophen-3-yl)-3-(4-hydroxyphenyl)-1H-indole-1-carboxamide] | 0.1 to 10 nM
2 | Cc1cccc(C)c1-c1c(-c2ccc(O)cc2)c2ccccc2n1C(N)=NO [Example 12, 2-(2,6-dimethylphenyl)-N′-hydroxy-3-(4-hydroxyphenyl)-1H-indole-1-carboximidamide] | 0.1 to 10 nM
3 | Cc1noc(C)c1-c1c(-c2cc(F)c(O)c(F)c2)c2ccccc2n1C(N)=NO [Example 16, 3-(3,5-difluoro-4-hydroxyphenyl)-2-(3,5-dimethylisoxazol-4-yl)-N′-hydroxy-1H-indole-1-carboximidamide] | 0.1 to 10 nM
4 | Cc1noc(C)c1-c1c(-c2ccc(O)cc2F)c2ccccc2n1C(N)=NO [Example 18, 2-(3,5-dimethylisoxazol-4-yl)-3-(2-fluoro-4-hydroxyphenyl)-N′-hydroxy-1H-indole-1-carboximidamide] | 0.1 to 10 nM
5 | Cc1noc(C)c1-c1c(-c2cc(F)c(O)cc2F)c2ccccc2n1C(N)=NO [Example 19, 3-(2,5-difluoro-4-hydroxyphenyl)-2-(3,5-dimethylisoxazol-4-yl)-N′-hydroxy-1H-indole-1-carboximidamide] | 0.1 to 10 nM
6 | Cc1noc(C)c1-c1c(-c2ccc(O)c(F)c2)c2ccccc2n1C(N)=NO [Example 20, 2-(3,5-dimethylisoxazol-4-yl)-3-(3-fluoro-4-hydroxyphenyl)-N′-hydroxy-1H-indole-1-carboximidamide] | 0.1 to 10 nM
7 | Cc1csc(C)c1-c1c(-c2ccc(O)cc2)c2cc(Cl)ccc2n1C(N)=NO [Example 21, 5-chloro-2-(2,4-dimethylthiophen-3-yl)-N′-hydroxy-3-(4-hydroxyphenyl)-1H-indole-1-carboximidamide] | 0.1 to 10 nM
8 | Cc1noc(C)c1-c1c(-c2ccc(O)cc2)c2cc(Cl)ccc2n1C(N)=NO [Example 22, 5-chloro-2-(3,5-dimethylisoxazol-4-yl)-N′-hydroxy-3-(4-hydroxyphenyl)-1H-indole-1-carboximidamide] | 0.1 to 10 nM
9 | Cc1coc(C)c1-c1c(-c2ccc(O)cc2)c2ccccc2n1C(N)=NO [Example 23, 2-(2,4-dimethylfuran-3-yl)-N′-hydroxy-3-(4-hydroxyphenyl)-1H-indole-1-carboximidamide] | 0.1 to 10 nM
10 | Cc1nsc(C)c1-c1c(-c2ccc(O)cc2)c2ccccc2n1C(N)=NO [Example 24, 2-(3,5-dimethylisothiazol-4-yl)-N′-hydroxy-3-(4-hydroxyphenyl)-1H-indole-1-carboximidamide] | 0.1 to 10 nM

The remaining lines, values ahead:

Row | EC50 | Compound
11 | 0.1 to 10 nM | CC=C(C)c1c(-c2ccc(O)cc2)c2ccccc2n1C(N)=NO (stereo in doubt) [Example 7, 2-((E)-but-2-en-2-yl)-N′-hydroxy-3-(4-hydroxyphenyl)-1H-indole-1-carboximidamide]
12 | 0.1 to 10 nM | Cc1noc(C)c1-c1c(-c2ccc(O)cc2)c2ccccc2n1C(N)=NO [Example 2, 2-(3,5-dimethylisoxazol-4-yl)-N′-hydroxy-3-(4-hydroxyphenyl)-1H-indole-1-carboximidamide]
13 | 0.1 to 10 nM | Cc1noc(C)c1-c1c(-c2ccc(O)cc2)c2ccccc2n1C(N)=O [Example 3, 2-(3,5-dimethylisoxazol-4-yl)-3-(4-hydroxyphenyl)-1H-indole-1-carboxamide]
14 | 0.1 to 10 nM | Cc1noc(C)c1-c1c(-c2ccc(O)cc2)c2ccccc2n1C=NO [Example 5, 2-(3,5-dimethylisoxazol-4-yl)-3-(4-hydroxyphenyl)-1H-indole-1-carbaldehyde oxime]
15 | 0.1 to 10 nM | Cc1noc(C)c1-c1c(-c2ccc(O)cc2)c2ccccc2n1S(C)(=O)=O [Example 6, 4-(2-(3,5-dimethylisoxazol-4-yl)-1-(methylsulfonyl)-1H-indol-3-yl)phenol]
16 | 0.1 to 10 nM | CCNC(=O)n1c(-c2c(C)noc2C)c(-c2ccc(O)cc2)c2ccccc21 [Example 8, 2-(3,5-dimethylisoxazol-4-yl)-N-ethyl-3-(4-hydroxyphenyl)-1H-indole-1-carboxamide]
17 | 0.1 to 10 nM | Cc1csc(C)c1-c1c(-c2ccc(O)cc2)c2ccccc2n1C(N)=NO [Example 10, 2-(2,4-dimethylthiophen-3-yl)-N′-hydroxy-3-(4-hydroxyphenyl)-1H-indole-1-carboximidamide]
